How the values were obtained:
Test in all cases: 33PanQinase panel
Type in all cases: biochemical
ACV-R2A = target: T1, ACV-R2A (Homo sapiens, UniProt P27037); details: read-out: Residual Activity (%)
T1 construct: purchased ProQinase
Method: (§1) Figure 5 Dendrogram representation of the selectivity profile of 29d at a concentration of 1 μM in a panel of 320 wild-type kinases (ProQinase, Freiburg, Germany). The residual kinase activity was determined compared to DMSO control. Images were generated using TREEspot Software Tool, DISCOVERX CORPORATION 2010. […]
(§2) Table S2. Selectivity profile of compound 29d. The inhibitor has been screened at a concentration of 1 µM over a panel of 320 wild-type protein kinases by ProQinase GmbH (Freiburg, Germany) using an activity-based radiometric 33PanQinase® assay. Results are presented as percentage of residual kinase activity relative to […]
(§3) control. The final DMSO concentration was 1 % in each reaction-mix. Classification of protein kinase families refers to Manning et al. (Manning, G.; Whyte, D. B.; Martinez, R.; Hunter, T.; Sudarsanam, S. The Protein Kinase Complement of the Human Genome. Science 2002, 298, 1912–1934): AGC = containing PKA, PKG, PKC families; […] = containing Cdk, MAPK, GSK3, CLK families; STE = homologs of yeast sterile 7, sterile 11, sterile 20 kinases; TK = tyrosine kinase; TKL = tyrosine kinase-like.
(§4) Kinase name Kinase family Residual Activity (%)

ACV-RL1 = target: T2, ACV-RL1 (Homo sapiens, UniProt P37023); details: ACV-RL1, 1 µM; read-out: Residual Activity (%)
T2 construct: purchased ProQinase
Method: as §1, §2, §3, §4

ALK (GST-HIS-tag) = target: T3, ALK (GST-HIS-tag) (Homo sapiens, UniProt Q9UM73); details: read-out: Residual Activity (%)
T3 construct: purchased ProQinase
Method: as §1, §2, §3, §4

Aurora-B = target: T4, Aurora-B (Homo sapiens, UniProt Q96GD4); details: read-out: Residual Activity (%)
T4 construct: purchased ProQinase
Method: as §1, §2, §3, §4

CDK1/CycE1 = target: T5, CDK1/CycE1 (Homo sapiens, UniProt P06493); details: CDK1/CycE1, 1 µM; read-out: Residual Activity (%)
T5 construct: purchased ProQinase
Method: as §1, §2, §3, §4

CSK = target: T6, CSK (Homo sapiens, UniProt P41240); details: read-out: Residual Activity (%)
T6 construct: purchased ProQinase
Method: as §1, §2, §3, §4

DAPK2 = target: T7, DAPK2 (Homo sapiens, UniProt Q9UIK4); details: DAPK2, 1 µM; read-out: Residual Activity (%)
T7 construct: purchased ProQinase
Method: as §1, §2, §3, §4

DDR2 = target: T8, DDR2 (Homo sapiens, UniProt Q16832); details: DDR2, 1 µM; read-out: Residual Activity (%)
T8 construct: purchased ProQinase
Method: as §1, §2, §3, §4

DYRK3 = target: T9, DYRK3 (Homo sapiens, UniProt O43781); details: DYRK3, 1 µM; read-out: Residual Activity (%)
T9 construct: purchased ProQinase
Method: as §1, §2, §3, §4

EPHB4 = target: T10, EPHB4 (Homo sapiens, UniProt P54760); details: EPHB4, 1 µM; read-out: Residual Activity (%)
T10 construct: purchased ProQinase
Method: as §1, §2, §3, §4

FGF-R3 = target: T11, FGF-R3 (Homo sapiens, UniProt P22607); details: FGF-R3, 1 µM; read-out: Residual Activity (%)
T11 construct: purchased ProQinase
T11 sequence (P22607 23-806): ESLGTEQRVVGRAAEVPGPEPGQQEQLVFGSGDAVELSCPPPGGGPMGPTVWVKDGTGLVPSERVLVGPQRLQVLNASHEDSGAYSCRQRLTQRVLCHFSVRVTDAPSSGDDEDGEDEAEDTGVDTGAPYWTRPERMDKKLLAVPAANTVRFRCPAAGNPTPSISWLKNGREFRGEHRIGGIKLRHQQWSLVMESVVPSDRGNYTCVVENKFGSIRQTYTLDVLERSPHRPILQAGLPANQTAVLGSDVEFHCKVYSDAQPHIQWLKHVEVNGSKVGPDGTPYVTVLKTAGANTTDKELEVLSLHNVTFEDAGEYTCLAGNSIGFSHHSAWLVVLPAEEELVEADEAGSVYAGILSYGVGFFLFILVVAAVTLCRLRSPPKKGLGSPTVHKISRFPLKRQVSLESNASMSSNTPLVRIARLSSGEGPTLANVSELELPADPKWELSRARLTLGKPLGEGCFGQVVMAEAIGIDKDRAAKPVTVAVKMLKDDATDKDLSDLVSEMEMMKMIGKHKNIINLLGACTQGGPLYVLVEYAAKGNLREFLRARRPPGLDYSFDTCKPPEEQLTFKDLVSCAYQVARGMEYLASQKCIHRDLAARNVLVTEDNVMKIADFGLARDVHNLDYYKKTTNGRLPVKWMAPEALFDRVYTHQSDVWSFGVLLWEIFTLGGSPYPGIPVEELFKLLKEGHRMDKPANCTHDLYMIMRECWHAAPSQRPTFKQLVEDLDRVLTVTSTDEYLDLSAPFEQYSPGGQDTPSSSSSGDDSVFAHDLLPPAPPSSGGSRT
Method: as §1, §2, §3, §4

GRK2 = target: T12, GRK2 (Homo sapiens, UniProt P25098); details: GRK2, 1 µM; read-out: Residual Activity (%)
T12 construct: purchased ProQinase
T12 sequence (P25098 whole entry): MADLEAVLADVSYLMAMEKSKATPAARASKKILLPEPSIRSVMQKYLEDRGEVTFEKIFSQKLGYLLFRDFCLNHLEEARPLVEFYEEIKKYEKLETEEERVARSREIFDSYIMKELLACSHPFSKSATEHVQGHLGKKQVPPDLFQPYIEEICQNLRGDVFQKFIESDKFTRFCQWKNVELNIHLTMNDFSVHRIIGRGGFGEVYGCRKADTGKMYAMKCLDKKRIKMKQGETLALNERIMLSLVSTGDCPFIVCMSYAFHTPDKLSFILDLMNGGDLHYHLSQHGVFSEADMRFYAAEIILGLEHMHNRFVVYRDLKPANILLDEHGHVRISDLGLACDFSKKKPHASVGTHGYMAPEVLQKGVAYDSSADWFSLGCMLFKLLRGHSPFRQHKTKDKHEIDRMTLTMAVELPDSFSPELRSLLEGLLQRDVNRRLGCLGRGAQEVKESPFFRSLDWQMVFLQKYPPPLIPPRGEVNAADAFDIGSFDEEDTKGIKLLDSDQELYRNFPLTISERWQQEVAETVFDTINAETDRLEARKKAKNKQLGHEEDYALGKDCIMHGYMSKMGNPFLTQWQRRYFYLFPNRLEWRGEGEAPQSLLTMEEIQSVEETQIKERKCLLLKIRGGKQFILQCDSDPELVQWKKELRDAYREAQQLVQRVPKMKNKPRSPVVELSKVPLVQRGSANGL
Method: as §1, §2, §3, §4

GSG2 = target: T13, GSG2 (Homo sapiens, UniProt Q8TF76); details: GSG2, 1 µM; read-out: Residual Activity (%)
T13 construct: purchased ProQinase
Method: as §1, §2, §3, §4

MEK5 = target: T14, MEK5 (Homo sapiens, UniProt Q13163); details: MEK5, 1 µM; read-out: Residual Activity (%)
T14 construct: purchased ProQinase
Method: as §1, §2, §3, §4

MKNK2 = target: T15, MKNK2 (Homo sapiens, UniProt Q9HBH9); details: MKNK2, 1 µM; read-out: Residual Activity (%)
T15 construct: purchased ProQinase
Method: as §1, §2, §3, §4

NEK1 = target: T16, NEK1 (Homo sapiens, UniProt Q96PY6); details: NEK1, 1 µM; read-out: Residual Activity (%)
T16 construct: purchased ProQinase
Method: as §1, §2, §3, §4

PBK = target: T17, PBK (Homo sapiens, UniProt Q96KB5); details: read-out: Residual Activity (%)
T17 construct: purchased ProQinase
Method: as §1, §2, §3, §4

PDK1 = target: T18, PDK1 (Homo sapiens, UniProt O15530); details: PDK1, 1 µM; read-out: Residual Activity (%)
T18 construct: purchased ProQinase
Method: as §1, §2, §3, §4

PKC-eta = target: T19, PKC-eta (Homo sapiens, UniProt P24723); details: read-out: Residual Activity (%)
T19 construct: purchased ProQinase
Method: as §1, §2, §3, §4

PKC-gamma = target: T20, PKC-gamma (Homo sapiens, UniProt P05129); details: read-out: Residual Activity (%)
T20 construct: purchased ProQinase
Method: as §1, §2, §3, §4

PKC-mu = target: T21, PKC-mu (Homo sapiens, UniProt Q15139); details: read-out: Residual Activity (%)
T21 construct: purchased ProQinase
T21 sequence (Q15139 whole entry): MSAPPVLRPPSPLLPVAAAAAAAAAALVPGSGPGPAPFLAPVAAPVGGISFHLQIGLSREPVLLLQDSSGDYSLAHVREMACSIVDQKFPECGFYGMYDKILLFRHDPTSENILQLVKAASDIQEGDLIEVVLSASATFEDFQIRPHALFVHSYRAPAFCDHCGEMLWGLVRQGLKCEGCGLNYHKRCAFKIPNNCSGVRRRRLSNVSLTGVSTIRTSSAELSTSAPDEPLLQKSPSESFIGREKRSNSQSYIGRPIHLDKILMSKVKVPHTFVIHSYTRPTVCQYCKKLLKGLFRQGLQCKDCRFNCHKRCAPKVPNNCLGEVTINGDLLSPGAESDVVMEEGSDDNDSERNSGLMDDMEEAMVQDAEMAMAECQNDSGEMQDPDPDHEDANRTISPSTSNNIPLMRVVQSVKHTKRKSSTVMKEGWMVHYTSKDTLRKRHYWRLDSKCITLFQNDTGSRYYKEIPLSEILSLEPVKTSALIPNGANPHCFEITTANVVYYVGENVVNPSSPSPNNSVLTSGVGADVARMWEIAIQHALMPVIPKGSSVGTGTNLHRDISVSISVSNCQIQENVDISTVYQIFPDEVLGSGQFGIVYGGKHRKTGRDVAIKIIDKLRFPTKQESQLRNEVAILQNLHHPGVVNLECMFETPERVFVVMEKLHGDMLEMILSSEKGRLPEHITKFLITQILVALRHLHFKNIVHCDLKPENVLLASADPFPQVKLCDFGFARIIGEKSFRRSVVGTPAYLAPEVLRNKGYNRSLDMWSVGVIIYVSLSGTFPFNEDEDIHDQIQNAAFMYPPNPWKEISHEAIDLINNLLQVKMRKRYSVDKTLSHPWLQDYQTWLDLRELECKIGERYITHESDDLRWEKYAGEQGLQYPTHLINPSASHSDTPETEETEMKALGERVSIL
Method: as §1, §2, §3, §4

PKC-zeta = target: T22, PKC-zeta (Homo sapiens, UniProt Q05513); details: read-out: Residual Activity (%)
T22 construct: purchased ProQinase
T22 sequence (Q05513 whole entry): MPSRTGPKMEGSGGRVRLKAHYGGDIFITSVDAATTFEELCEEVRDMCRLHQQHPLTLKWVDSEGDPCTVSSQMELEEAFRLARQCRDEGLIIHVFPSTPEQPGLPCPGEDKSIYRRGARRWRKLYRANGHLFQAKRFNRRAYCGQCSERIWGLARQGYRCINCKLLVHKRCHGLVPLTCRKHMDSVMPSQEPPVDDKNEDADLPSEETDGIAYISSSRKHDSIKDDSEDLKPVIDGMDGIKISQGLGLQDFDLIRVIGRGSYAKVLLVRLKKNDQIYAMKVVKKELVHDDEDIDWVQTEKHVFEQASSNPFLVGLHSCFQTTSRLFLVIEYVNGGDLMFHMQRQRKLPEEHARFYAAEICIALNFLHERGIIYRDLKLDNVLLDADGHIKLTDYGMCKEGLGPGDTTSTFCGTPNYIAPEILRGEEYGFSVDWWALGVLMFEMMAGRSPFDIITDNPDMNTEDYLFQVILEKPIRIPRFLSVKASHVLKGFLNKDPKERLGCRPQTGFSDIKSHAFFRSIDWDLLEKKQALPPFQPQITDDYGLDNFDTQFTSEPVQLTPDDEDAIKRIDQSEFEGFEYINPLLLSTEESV
Method: as §1, §2, §3, §4

PLK1 = target: T23, PLK1 (Homo sapiens, UniProt P53350); details: PLK1, 1 µM; read-out: Residual Activity (%)
T23 construct: purchased ProQinase
Method: as §1, §2, §3, §4

[1] = target: T24, RAF1 Y340D/Y341D (untagged)** (Homo sapiens, UniProt P04049, Y340D/Y341D); details: read-out: Residual Activity (%)
T24 construct: purchased ProQinase
Method: as §1, §2, §3, §4

RIPK2 = target: T25, RIPK2 (Homo sapiens, UniProt O43353); details: RIPK2, 1 µM; read-out: Residual Activity (%)
T25 construct: purchased ProQinase
Method: as §1, §2, §3, §4

SRPK2 = target: T26, SRPK2 (Homo sapiens, UniProt P78362); details: SRPK2, 1 µM; read-out: Residual Activity (%)
T26 construct: purchased ProQinase
Method: as §1, §2, §3, §4

TAOK3 = target: T27, TAOK3 (Homo sapiens, UniProt Q9H2K8); details: TAOK3, 1 µM; read-out: Residual Activity (%)
T27 construct: purchased ProQinase
Method: as §1, §2, §3, §4

TXK = target: T28, TXK (Homo sapiens, UniProt P42681); details: read-out: Residual Activity (%)
T28 construct: purchased ProQinase
Method: as §1, §2, §3, §4

VEGF-R1 = target: T29, VEGF-R1 (Homo sapiens, UniProt P17948); details: VEGF-R1, 1 µM; read-out: Residual Activity (%)
T29 construct: purchased ProQinase
T29 sequence (P17948 27-1338): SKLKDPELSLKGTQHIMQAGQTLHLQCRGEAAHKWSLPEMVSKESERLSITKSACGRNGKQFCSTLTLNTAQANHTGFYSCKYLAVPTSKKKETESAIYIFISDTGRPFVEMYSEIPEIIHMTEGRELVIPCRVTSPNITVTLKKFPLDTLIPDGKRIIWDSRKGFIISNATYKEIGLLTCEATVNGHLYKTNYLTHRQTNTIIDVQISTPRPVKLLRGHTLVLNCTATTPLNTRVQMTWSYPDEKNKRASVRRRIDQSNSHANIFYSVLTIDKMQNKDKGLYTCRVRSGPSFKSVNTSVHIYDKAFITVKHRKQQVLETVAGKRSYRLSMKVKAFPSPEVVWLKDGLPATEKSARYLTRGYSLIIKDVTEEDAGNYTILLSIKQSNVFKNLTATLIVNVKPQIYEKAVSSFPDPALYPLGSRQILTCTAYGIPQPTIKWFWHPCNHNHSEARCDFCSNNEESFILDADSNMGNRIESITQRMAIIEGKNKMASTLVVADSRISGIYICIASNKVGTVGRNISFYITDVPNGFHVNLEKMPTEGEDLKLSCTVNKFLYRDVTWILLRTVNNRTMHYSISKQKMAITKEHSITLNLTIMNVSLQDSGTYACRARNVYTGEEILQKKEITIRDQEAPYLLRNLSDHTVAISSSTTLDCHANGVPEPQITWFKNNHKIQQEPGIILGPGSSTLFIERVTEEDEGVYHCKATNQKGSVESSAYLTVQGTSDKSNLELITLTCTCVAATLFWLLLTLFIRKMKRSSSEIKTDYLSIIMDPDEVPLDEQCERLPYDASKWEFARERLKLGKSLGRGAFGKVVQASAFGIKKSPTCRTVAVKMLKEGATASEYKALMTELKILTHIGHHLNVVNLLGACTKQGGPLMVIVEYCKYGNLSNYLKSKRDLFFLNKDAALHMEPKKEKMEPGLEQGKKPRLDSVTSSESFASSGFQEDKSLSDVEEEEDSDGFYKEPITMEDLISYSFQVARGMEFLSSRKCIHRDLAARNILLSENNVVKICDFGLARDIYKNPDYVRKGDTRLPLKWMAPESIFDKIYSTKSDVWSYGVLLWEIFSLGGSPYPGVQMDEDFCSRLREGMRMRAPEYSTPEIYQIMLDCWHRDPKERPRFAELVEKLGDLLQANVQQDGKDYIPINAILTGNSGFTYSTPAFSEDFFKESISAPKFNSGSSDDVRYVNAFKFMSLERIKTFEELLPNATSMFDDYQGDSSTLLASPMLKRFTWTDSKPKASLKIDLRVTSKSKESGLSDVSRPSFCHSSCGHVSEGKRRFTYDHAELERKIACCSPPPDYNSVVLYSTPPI
Method: as §1, §2, §3, §4

p38-beta = target: T30, p38-beta (Homo sapiens, UniProt Q15759); details: read-out: Residual Activity (%)
T30 construct: purchased ProQinase
Method: as §1, §2, §3, §4

**Q.** What does the source list for COc1ccc(-c2cc(C(=O)Nc3cc(-c4c(-c5ccc(F)cc5)noc4C(C)C)ccn3)n(CC3NCC(O)C3O)c2)cc1 (stereo not drawn) [29d]?
**A.** remaining activity at 1 µM (ACV-R2A): 125%; remaining activity at 1 µM (ACV-RL1): 115%; remaining activity at 1 µM (ALK (GST-HIS-tag)): 105%; remaining activity at 1 µM (Aurora-B): 96%; remaining activity at 1 µM (CDK1/CycE1): 100%; remaining activity at 1 µM (CSK): 115%; remaining activity at 1 µM (DAPK2): 96%; remaining activity at 1 µM (DDR2): 95%; remaining activity at 1 µM (DYRK3): 106%; remaining activity at 1 µM (EPHB4): 118%; remaining activity at 1 µM (FGF-R3): 118%; remaining activity at 1 µM (GRK2): 87%; remaining activity at 1 µM (GSG2): 91%; remaining activity at 1 µM (MEK5): 110%; remaining activity at 1 µM (MKNK2): 92%; remaining activity at 1 µM (NEK1): 101%; remaining activity at 1 µM (PBK): 89%; remaining activity at 1 µM (PDK1): 93%; remaining activity at 1 µM (PKC-eta): 113%; remaining activity at 1 µM (PKC-gamma): 112%; remaining activity at 1 µM (PKC-mu): 94%; remaining activity at 1 µM (PKC-zeta): 123%; remaining activity at 1 µM (PLK1): 98%; remaining activity at 1 µM [1]: 103%; remaining activity at 1 µM (RIPK2): 108%; remaining activity at 1 µM (SRPK2): 107%; remaining activity at 1 µM (TAOK3): 96%; remaining activity at 1 µM (TXK): 119%; remaining activity at 1 µM (VEGF-R1): 119%; remaining activity at 1 µM (p38-beta): 74%

— publication PMC6429214, “Design, Synthesis and Biological Evaluation of Isoxazole-Based CK1 Inhibitors Modified with Chiral Pyrrolidine Scaffolds” (Molecules, 2019)
